Measured values taken from patent publication US9790169B2, “IDO inhibitors” (BRISTOL-MYERS SQUIBB COMPANY, priority 2015, dated 2017).

Target: human IDO1 (Homo sapiens, UniProt P14902)
Experiment: Assessment of human IDO-1 inhibitory activity in Hela cells (Interferon-gamma stimulated HeLa cells, Ehrlich reagent, absorbance 490 nm)
Type: cell-based
Set-up: endogenous in cells; host or cells: HeLa cells stimulated with interferon-gamma
Details: Hela Human IDO-1 cellular assay
Protocol: Exemplary compounds were tested for inhibition of IDO activity.
Assessment of Human IDO-1 Inhibitory Activity in Hela Cells
HeLa cells were seeded at 20,000 cells per 30 μL per well with RPMI/phenol red free media containing 10% FBS in a 384-well tissue culture plate (black with clear bottoms). 50 nL of compound was added to cells and incubated at 37° C. for one hour. 20 μL of the recombinant human Interferon-gamma (R&D System, Cat. #285-IF, at final concentration of 10 ng/ml) or recombinant murine Interferon-gamma (PEPROTECH® Inc., Cat. #315-05, final concentration of 5 ng/ml) was added to activate IDO signaling. The cells were incubated for 18 hours in 37° C. incubator with 5% CO2.
Compound treatment was stopped by adding 5 μl trichloroacetic acid to a final concentration of 3%. Subsequently, the cell plate was further incubated at 50° C. for 30 minute. An equal volume supernatant (20 μL) and 2% (w/v) Ehrlich reagent (4-dimethylaminobenzaldehyde) in glacial acetic acid were mixed in a new clear bottom 384-well plate. This plate was incubated at room temperature for 30 minutes. Absorbance at 490 nm was measured on Envision plate reader.
Compound IC50 values were calculated using counts from unstimulated (no INF-gamma treatment) wells as 100% inhibition. INF-gamma treatment without compound treatment as 0% inhibition.

human IDO1, sequence (P14902 whole entry): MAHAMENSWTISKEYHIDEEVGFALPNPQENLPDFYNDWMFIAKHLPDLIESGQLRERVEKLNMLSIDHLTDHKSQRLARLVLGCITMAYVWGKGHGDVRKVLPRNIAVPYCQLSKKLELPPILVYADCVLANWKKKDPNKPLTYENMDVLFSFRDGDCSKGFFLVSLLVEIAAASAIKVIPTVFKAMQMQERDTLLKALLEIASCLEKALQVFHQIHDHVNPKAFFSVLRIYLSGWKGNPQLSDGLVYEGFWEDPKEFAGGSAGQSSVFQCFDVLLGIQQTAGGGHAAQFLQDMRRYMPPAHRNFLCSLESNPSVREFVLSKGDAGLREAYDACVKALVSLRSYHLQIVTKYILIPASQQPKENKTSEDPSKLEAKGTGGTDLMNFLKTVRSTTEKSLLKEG

IC50 [µM] | Structure (SMILES)
< 0.05 | CCOc1ncc(Nc2cc(C(CC)CC(=O)O)ccc2N(CC)C2CCOC2)cn1 (single isomer, unassigned) [Example 945 D1, 3-(3-((2-Ethoxypyrimidin-5-yl)amino)-4-(ethyl(tetrahydrofuran-3-yl)amino)phenyl)pentanoic acid]
> 0.05 | COCC(CC(=O)O)c1ccc(N2CCOC(C)(C)C2)c(Nc2ccc(Cl)cc2)c1 (single isomer, unassigned) [Example 1315 E1, 3-(3-((4-Chlorophenyl)amino)-4-(2,2-dimethylmorpholino)phenyl)-4-methoxybutanoic acid]
< 0.005 | COCC(CC(=O)O)c1ccc(N2CCC(c3ccccc3)CC2)c(Nc2ccc(C#N)cc2)c1 (single isomer, unassigned) [Example 1350 E1, 3-(3-((4-Cyanophenyl)amino)-4-(4-phenylpiperidin-1-yl)phenyl)-4-methoxybutanoic acid]
> 0.05 | CCN(c1ccc(C2(CC(=O)O)CCOCC2)cc1Nc1ccc(OC)nc1)C1CCOCC1 [Example 156, 2-(4-(4-(ethyl(tetrahydro-2H-pyran-4-yl)amino)-3-((6-methoxypyridin-3-yl)amino)phenyl)tetrahydro-2H-pyran-4-yl)acetic acid]
> 0.05 | COc1ccc(Nc2cc(C(CC(=O)O)C3CC3)ccc2N2C[C@@H](C)O[C@@H](C)C2)cn1 (single isomer, unassigned) [Example 246]
< 0.005 | CCOc1ncc(Nc2cc(C(CC)CC(=O)O)cnc2N(CC)C2CCOCC2)cn1 (racemic) [Example 1378]
< 0.05 | C[C@@H]1CN(c2ccc(C(CC(=O)O)C3CC3)cc2Nc2ccc(Cl)cc2)C[C@H](C)O1 (single isomer, unassigned) [Example 244]
< 0.005 | CC[C@@H](CC(=O)O)c1ccc(N(CC)C2CCOCC2)c(Nc2ccc(OC)cn2)c1 (single isomer, unassigned) [Example 462]
> 0.05 | CCC(CC(=O)O)c1ccc(N2CCNCC2)c(Nc2ccc(C#N)cc2)c1 (single isomer, unassigned) [Example 671 Enantiomer 1, 3-(3-((4-Cyanophenyl)amino)-4-(piperazin-1-yl)phenyl)pentanoic acid]
< 0.05 | CCc1ccc(Nc2cc(C(COC)CC(=O)O)cc(F)c2N(CC(C)C)CC(C)C)cc1 (single isomer, unassigned) [Example 922, 3-(4-(diisobutylamino)-3-((4-ethylphenyl)amino)-5-fluorophenyl)-4-methoxybutanoic acid]
< 0.05 | CCC(CC(=O)O)c1ccc(N(CC)C2CCOC2)c(NC(=O)Nc2ccc(Cl)cc2F)c1 (single isomer, unassigned) [948 D2]
< 0.005 | CC[C@@H](CC(=O)O)c1ccc(N(CC)C2CCOCC2)c(Nc2ccc(C#N)cn2)c1 (single isomer, unassigned) [Example 461]
< 0.05 | CCOc1ncc(Nc2cc(C(CC(=O)O)C3CC3)ccc2N(CC)C2CCOCC2)cn1 (single isomer, unassigned) [Example 36, 3-cyclopropyl-3-(3-((2-ethoxypyrimidin-5-yl)amino)-4-(ethyl(tetrahydro-2H-pyran-4-yl)amino)phenyl)propanoic acid]
> 0.05 | CCOc1ncc(Nc2cc(C(COC)CC(=O)O)ccc2N2CCOC[C@@H]2C(C)C)cn1 (single isomer, unassigned) [Example 931]
< 0.05 | CCC1COCCN1c1ccc([C@H](COC)CC(=O)O)cc1Nc1ccc(C#N)cc1 (single isomer, unassigned) [Example 1303]
< 0.05 | CC[C@@H](CC(=O)O)c1ccc(N(CC2CC2)CC(C)(C)O)c(Nc2ccc(F)cc2)c1 (single isomer, unassigned) [Example 269]

IC50 [µM] | Structure (SMILES)
> 0.05 | COCCN(c1ccc(C(COC)CC(=O)O)cc1NC(=O)Nc1ccc(C)cc1)C1CCOCC1 (single isomer, unassigned) [Example 261 Enantiomer 1, 4-Methoxy-3-(4-((2-methoxyethyl)(tetrahydro-2H-pyran-4-yl)amino)-3-(3-(p-tolyl)ureido)phenyl)butanoic acid]
< 0.05 | CCN(c1ccc([C@@H](COC)CC(=O)O)cc1Nc1ccc(C#N)c(C)n1)C1CCOCC1 (single isomer, unassigned) [Example 382]
< 0.005 | CCN(c1ccc([C@@H](COC)CC(=O)O)cc1Nc1ccc(C#N)cc1F)C1CCOCC1 (single isomer, unassigned) [Example 355]
> 0.05 | CCN(c1ccc([C@H](COC)CC(=O)O)cc1NC(=O)Nc1ccc(Cl)cc1Cl)C1CCOCC1 (single isomer, unassigned) [Example 441]
< 0.005 | CCN(c1ccc([C@H](CC(=O)O)C(F)(F)F)cc1NC(=O)Nc1ccc(Cl)cc1F)C1CCOCC1 (single isomer, unassigned) [Example 1267]
> 0.05 | CCN(c1ccc([C@H](CC(=O)O)C(F)(F)F)cc1NC(=O)Nc1ccc(C#N)cc1)C1CCOCC1 (single isomer, unassigned) [Example 1268]
> 0.05 | CCN(c1ccc(C(CC(=O)O)C2CC2)cc1NC(=O)Nc1ccc(C#N)cc1)C1CCOCC1 (single isomer, unassigned) [Example 255 Enantiomer 1, 3-(3-(3-(4-Cyanophenyl)ureido)-4-(ethyl(tetrahydro-2H-pyran-4-yl)amino)phenyl)-3-cyclopropylpropanoic acid]
< 0.005 | CCN(c1cc(F)c([C@@H](COC)CC(=O)O)cc1NC(=O)Nc1ccc(Cl)cc1F)C1CCOCC1 (single isomer, unassigned) [Example 848, 3-(5-(3-(4-Chloro-2-fluorophenyl)ureido)-4-(ethyl(tetrahydro-2H-pyran-4-yl)amino)-2-fluorophenyl)-4-methoxybutanoic acid]
> 0.05 | CCOc1ncc(Nc2cc(C(CC)CC(=O)O)ccc2N2C[C@@H]3C[C@H]2CN3C(=O)OC(C)(C)C)cn1 (single isomer, unassigned) [Example 448]
> 0.05 | CCC(CC(=O)O)c1ccc(N2CCC(C)CC2)c(Nc2cnc(OC)nc2)c1 (single isomer, unassigned) [Example 42, 3-(3-((2-methoxypyrimidin-5-yl)amino)-4-(4-methylpiperidin-1-yl)phenyl)pentanoic acid]
< 0.05 | CCC(CC(=O)O)c1ccc(N(CC)C2CCOC2)c(NC(=O)Nc2ccc(Cl)cc2F)c1 (single isomer, unassigned) [Example 946 D1, 3-(3-(3-(4-Chloro-2-fluorophenyl)ureido)-4-(ethyl(tetrahydrofuran-3-yl)amino)phenyl)pentanoic acid]
< 0.005 | CC[C@H](CC(=O)O)c1ccc(N(CC)C2CCOCC2)c(Nc2ccc(Cl)cn2)c1 (single isomer, unassigned) [Example 503]
> 0.05 | CCC1COCCN1c1ccc([C@@H](COC)CC(=O)O)cc1Nc1ccc(Cl)cc1 (single isomer, unassigned) [Example 1286]
> 0.05 | CCOc1ncc(Nc2cc([C@H](CC)CC(C)(C)O)ccc2N(CC)C2CCOCC2)cn1 (single isomer, unassigned) [Example 1368]
> 0.05 | CCCN(c1ccc(C(CC)CC(=O)O)cc1NC(=O)Nc1ccc(C)cc1)C1CCS(=O)(=O)CC1 (single isomer, unassigned) [Example 14 Enantiomer 1, 3-(4-((1,1-Dioxidotetrahydro-2h-thiopyran-4-yl)(propyl)amino)-3-(3-(p-tolyl)ureido)phenyl)pentanoic acid]
